Experimental data reported in patent publication US6426355B1, “Heterocyclic carboxamide-containing thiourea inhibitors of herpes viruses containing phenylenediamine group” (American Home Products, priority 1998, dated 2002).
Values after ≈ are worked out from the molar mass of the structure shown.

Legend:
[1] = system: HCMV recombinant mutant virus (RV145); test: HCMV microtiter plate assay (beta-glucuronidase reporter); format: cell-based, Human Cytomegalovirus; details: HCMV in human foreskin fibroblasts
Procedure, shortened: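 Human foreskin fibroblasts were infected with RV145 in the presence of inhibitor. β-glucuronidase under a viral promoter served as the replication marker. At 96 h post-infection, lysates in pH 7.0 phosphate with Triton X-100/sarkosyl were assayed colorimetrically or fluorometrically, and IC50 was estimated from varying inhibitor amounts.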

HSV-1 = test: HSV Antiviral (ELISA) assay; format: cell-based; details: HSV-1 in Vero cells
Procedure, shortened: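 Vero cells in DMEM/2% FBS pretreated with compound 30 min before HSV-1 infection (MOI 0.006), then ~24 h at 37 °C. Viral gD detected by ELISA with β-galactosidase secondary and 4-methylumbelliferyl-galactoside (ex 365/em 450 nm); IC50 from fluorescence versus untreated infected cells.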

VZV strain Ellen = test: VZV Antiviral (ELISA) assay; format: cell-based; details: VZV strain Ellen in HFF cells
Procedure, shortened: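 Antiviral IC50 is derived by comparing fluorescence with and without compound after a three-day culture of VZV-infected plus uninfected foreskin fibroblasts. Replication is quantified by ELISA against glycoprotein II, using a β-galactosidase secondary and methyl umbelliferyl-β-D-galactoside.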

SMILES	IC50 (ug/ml) HCMV [1] [µg/mL]	IC50 (ug/ml) HSV (HSV-1) [µg/mL]	IC50 (ug/ml) VZV (VZV strain Ellen) [µg/mL]
O=C(Nc1ccc(NC(=S)Nc2cc(N3CCOCC3)cc(C(F)(F)F)c2)cc1)c1csnn1 [Example 559]	0.012 (≈ 0.0236 µM)	>10	>10
O=C(Nc1ccc(NC(=S)Nc2cc(N3CCCC3)cc(C(F)(F)F)c2)cc1)c1csnn1 [Example 560]	0.008 (≈ 0.0162 µM)	>10	>10
O=C(Nc1ccc(NC(=S)NCCc2ccc(F)cc2)cc1)c1ccco1 [Example 561]	0.05 (≈ 0.13 µM)	>10	8 (≈ 20.9 µM)
O=C(Nc1ccc(NC(=S)NCCc2cccc(Cl)c2)cc1)c1csnn1 [Example 562]	0.004 (≈ 0.00957 µM)	>10	8 (≈ 19.1 µM)
O=C(Nc1ccc(NC(=S)NCCc2cccc(Cl)c2)cc1)c1ccco1 [Example 564]	0.027 (≈ 0.0675 µM)	>10	5 (≈ 12.5 µM)
CC(NC(=S)Nc1ccc(NC(=O)c2csnn2)cc1)c1ccc(F)cc1 (stereo not drawn) [Example 565]	0.01 (≈ 0.0249 µM)	>10	0.22 (≈ 0.548 µM)
CC(NC(=S)Nc1ccc(NC(=O)c2csnn2)cc1)c1ccccc1 (stereo not drawn) [Example 588]	0.03 (≈ 0.0782 µM)	>10	0.36 (≈ 0.939 µM)
CC(NC(=S)Nc1ccc(NC(=O)c2ccco2)cc1)c1ccccc1 (stereo not drawn) [Example 590]	0.12 (≈ 0.328 µM)	>10	1 (≈ 2.74 µM)
CC(NC(=S)Nc1ccc(NC(=O)c2ccco2)cc1)c1ccc(F)cc1 (stereo not drawn) [Example 592]	0.049 (≈ 0.128 µM)	>10	2 (≈ 5.22 µM)
CC(C)CN(C)c1cc(NC(=S)Nc2ccc(NC(=O)c3csnn3)cc2)cc(C(F)(F)F)c1 [Example 594]	0.011 (≈ 0.0216 µM)	>10	>10
O=C(Nc1ccc(NC(=S)Nc2cc(N3CCC(O)C3)cc(C(F)(F)F)c2)cc1)c1csnn1 (stereo not drawn) [Example 595]	0.022 (≈ 0.0433 µM)	>10	3 (≈ 5.9 µM)
CCCCN(C)c1cc(NC(=S)Nc2ccc(NC(=O)c3csnn3)cc2)cc(C(F)(F)F)c1 [Example 597]	0.008 (≈ 0.0157 µM)	>10	>10
O=C(Nc1ccc(NC(=S)NCCc2cc(C(F)(F)F)cc(C(F)(F)F)c2)cc1)c1csnn1 [Example 599]	0.005 (≈ 0.00962 µM)	>10	>10
O=C(Nc1ccc(NC(=S)Nc2ccc(F)c(C(F)(F)F)c2)cc1)c1csnn1 [Example 600]	0.012 (≈ 0.0272 µM)	>10	>10
O=C(Nc1ccc(NC(=S)NCc2ccc(N3CCCCC3)c(C(F)(F)F)c2)cc1)c1csnn1 [Example 601]	0.0011 (≈ 0.00211 µM)	>10	>10
CN(C)c1ccc(CNC(=S)Nc2ccc(NC(=O)c3csnn3)cc2)cc1C(F)(F)F [Example 602]	0.0015 (≈ 0.00312 µM)	>10	>10
Nc1ccc(CCNC(=S)Nc2ccc(NC(=O)c3ccco3)cc2)cc1 [Example 603]	>0.5	>10	>10
O=C(Nc1ccc(NC(=S)NCCc2ccc(Br)cc2)cc1)c1ccco1 [Example 604]	0.025 (≈ 0.0563 µM)	>10	10 (≈ 22.5 µM)
Cc1ccc(CCNC(=S)Nc2ccc(NC(=O)c3ccco3)cc2)cc1 [Example 605]	0.062 (≈ 0.163 µM)	>10	10 (≈ 26.4 µM)

SMILES	IC50 (ug/ml) HCMV [1] [µg/mL]	IC50 (ug/ml) HSV (HSV-1) [µg/mL]	IC50 (ug/ml) VZV (VZV strain Ellen) [µg/mL]
O=C(Nc1ccc(NC(=S)NCCc2ccc(Br)cc2)cc1)c1csnn1 [Example 606]	0.0023 (≈ 0.00497 µM)	>10	>10
COc1cccc(CCNC(=S)Nc2ccc(NC(=O)c3ccco3)cc2)c1 [Example 607]	0.09 (≈ 0.228 µM)	8 (≈ 20.2 µM)	>10
O=C(Nc1ccc(NC(=S)NCCOc2ccccc2)cc1)c1ccco1 [Example 626]	0.07 (≈ 0.184 µM)	10 (≈ 26.2 µM)	>10
O=C(Nc1ccc(NC(=S)NCCOc2ccccc2)cc1)c1csnn1 [Example 627]	0.014 (≈ 0.035 µM)	10 (≈ 25 µM)	>10
O=C(Nc1ccc(CNC(=S)Nc2ccc(Cl)c(Cl)c2)cc1)c1csnn1 [Example 630]	0.4 (≈ 0.912 µM)	>10	4 (≈ 9.12 µM)
O=C(Nc1ccc(CNC(=S)Nc2ccc(Cl)c(C(F)(F)F)c2)cc1)c1csnn1 [Example 631]	0.15 (≈ 0.318 µM)	6 (≈ 12.7 µM)	6 (≈ 12.7 µM)
O=C(Nc1ccc(CNC(=S)Nc2cc(Cl)cc(Cl)c2)cc1)c1csnn1 [Example 635]	0.15 (≈ 0.342 µM)	>10	4 (≈ 9.12 µM)
COc1cccc(CCNC(=S)Nc2ccc(NC(=O)c3csnn3)cc2)c1 [Example 637]	0.014 (≈ 0.0339 µM)	>10	>10
Cc1ccc(CCNC(=S)Nc2ccc(NC(=O)c3csnn3)cc2)cc1 [Example 638]	0.01 (≈ 0.0252 µM)	>10	>10
COc1ccc(CCNC(=S)Nc2ccc(NC(=O)c3csnn3)cc2)cc1OC [Example 639]	0.07 (≈ 0.158 µM)	>10	>10
CC(=O)Nc1cc(Cl)cc(NC(=S)Nc2ccc(NC(=O)c3csnn3)cc2)c1 [Example 644]	0.03 (≈ 0.0671 µM)	>10	8 (≈ 17.9 µM)
O=C(Nc1ccc(NC(=S)NCCc2ccc(Cl)c(Cl)c2)cc1)c1csnn1 [Example 645]	0.003 (≈ 0.00663 µM)	>10	10 (≈ 22.1 µM)
CC(CCc1ccccc1)NC(=S)Nc1ccc(NC(=O)c2csnn2)cc1 (stereo not drawn) [Example 646]	0.03 (≈ 0.0729 µM)	>10	2.5 (≈ 6.07 µM)
CC(NC(=S)Nc1ccc(NC(=O)c2csnn2)cc1)c1ccc(Br)cc1 (stereo not drawn) [Example 647]	0.007 (≈ 0.0151 µM)	>10	0.1 (≈ 0.216 µM)
CC(NC(=S)Nc1ccc(NC(=O)c2ccncc2)cc1)c1ccc(F)cc1 (stereo not drawn) [Example 759]	>10	>10	2 (≈ 5.07 µM)
O=C(Nc1ccc(NC(=S)NCCc2cc(F)cc(C(F)(F)F)c2)cc1)c1csnn1 [Example 762]	0.002 (≈ 0.00426 µM)	>10	1.5 (≈ 3.19 µM)
O=C(Nc1ccc(NC(=S)NCCc2cc(C(F)(F)F)ccc2F)cc1)c1csnn1 [Example 767]	0.006 (≈ 0.0128 µM)	>10	1 (≈ 2.13 µM)
CC(NC(=S)Nc1ccc(NC(=O)c2ccc3ccccc3n2)cc1)c1ccc(F)cc1 (stereo not drawn) [Example 796]	4 (≈ 9 µM)	>10	>7.5
